Reference: patent US12252497B2, “Ras inhibitors” (Revolution Medicines, Inc., priority 2021, dated 2025)
Where two headings read alike, the source gives them in different places.

Assays:
SW1573 = conditions: Canon et al., Nature 575:217-223 (2019); cited from earlier work
AsPC-1 (K-Ras G12D) = assay: Potency assay: pERK; assay type: cell-based; conditions: Homo sapiens
Excerpt: The purpose of this assay was to measure the ability of test compounds to inhibit K-Ras in cells. Activated K-Ras induces increased phosphorylation of ERK at Threonine 202 and Tyrosine 204 (pERK). This procedure measures a decrease in cellular pERK in response to test compounds. The procedure described below in NCI-H358 cells is applicable to K-Ras G12C.
Note: This protocol may be executed substituting other cell lines to characterize inhibitors of other RAS variants, including, for example, AsPC-1 (K-Ras G12D), Capan-1 (K-Ras G12V), or NCI-H1355 (K-Ras G13C).
NCI-H358 cells were grown and maintained using media and procedures recommended by the ATCC. On the day prior to compound addition, cells were plated in 384-well cell culture plates (40 μl/well) and grown overnight in a 37° C., 5% CO2 incubator. Test compounds were prepared in 10, 3-fold dilutions in DMSO, with a high concentration of 10 mM. On the day of assay, 40 nL of test compound was added to each well of cell culture plate using an Echo550 liquid handler (LabCyte®). Concentrations of test compound were tested in duplicate. After compound addition, cells were incubated 4 hours at 37° C., 5% CO2. Following incubation, culture medium was removed and cells were washed once with phosphate buffered saline.
In some experiments, cellular pERK level was determined using the AlphaLISA SureFire Ultra p-ERK1/2 Assay Kit (PerkinElmer). Cells were lysed in 25 μL lysis buffer, with shaking at 600 RPM at room temperature. Lysate (10 μL) was transferred to a 384-well Opti-plate (PerkinElmer) and 5 μL acceptor mix was added. […] Signal was read on an Envision plate reader (PerkinElmer) using standard AlphaLISA settings. […] Signal was plotted vs. the decadal logarithm of compound concentration, and IC50 was determined by fitting a 4-parameter sigmoidal concentration response model.
In other experiments, cellular pERK was determined by In-Cell Western. […] Signal was plotted vs. the decadal logarithm of compound concentration, and IC50 was determined by fitting a 4-parameter sigmoidal concentration response model.

[1] = ASPC1, read-out: IC50 in the pERK potency assay

C=CC(=O)N1CCN(c2nc(=O)n(-c3c(C)ccnc3C(C)C)c3nc(-c4c(O)cccc4F)c(F)cc23)[C@@H](C)C1 [AMG510]
sensitivity of cell line to RAS inhibitor (SW1573): insensitive

CCn1c(-c2cccnc2[C@H](C)OC)c2c3cc(ccc31)-c1cc(cc(C(F)F)c1)C[C@H](NC(=O)[C@H](C1CCCC1)N1CC[C@]3(CCN(C(=O)[C@@H]4N[C@@H]4C4CC4)C3)C1)C(=O)N1CCC[C@H](N1)C(=O)OCC(C)(C)C2 [Example A18]
IC50 (AsPC-1 (K-Ras G12D); ASPC1, AsPC-1 (K-Ras G12D) cells, read-out: IC50 in the pERK potency assay): > 8 µM

CCn1c(-c2cccnc2[C@H](C)OC)c2c3cc(ccc31)-c1cc(cc(C(F)F)c1)C[C@H](NC(=O)[C@H](C(C)C)N1CC[C@]3(CCN(C(=O)[C@@H]4N[C@@H]4C4CC4)C3)C1)C(=O)N1CCC[C@H](N1)C(=O)OCC(C)(C)C2 [Example A17]
IC50 (AsPC-1 (K-Ras G12D); [1]): > 8 µM

CCn1c(-c2cccnc2[C@H](C)OC)c2c3cc(ccc31)-c1csc(n1)C[C@H](NC(=O)[C@H](C1CCCC1)N1CC[C@]3(CCN(C(=O)[C@@]4(C)CN4)C3)C1)C(=O)N1CCC[C@H](N1)C(=O)OCC(C)(C)C2 [Example A5]
IC50 (AsPC-1 (K-Ras G12D); [1]): > 8 µM
